Assays:
[1] = system: sodium channel binding site 2; design: species or system rat

Row | melting point [°C] | Structure (SMILES) | Inhibition (BTX) Mean [% at 10 μM] [1] [%]
1 | 65 to 70 | Cc1cnc([C@@H](Cc2c[nH]c3ccccc23)NC2CCC(c3ccccc3)(N(C)C)CC2)o1 (stereo partly shown) | –
2 | 71 to 74 | Cc1csc([C@@H](Cc2c[nH]c3ccccc23)NC2CCC(c3ccccc3)(N(C)C)CC2)n1 (stereo partly shown) | –
3 | 195 to 228 | CN(C)C1(c2ccccc2)CCC(N(C(=O)C(F)(F)F)C(Cc2c[nH]c3ccccc23)c2nnn[nH]2)CC1 (stereo not shown) | –
4 | – | CN(C)C(=O)[C@H](Cc1c[nH]c2ccccc12)NC1CCC(c2ccccc2)(N(C)C)CC1.Cl.Cl (stereo partly drawn) [Example 6, (S)-2-(4-(dimethylamino)-4-phenylcyclohexylamino)-3-(1H-indol-3-yl)-N,N-dimethylpropanamide dihydrochloride] | 15
